Drawing on ChEMBL document CHEMBL1909046, “DrugMatrix in vitro pharmacology data”, this text covers IC50 and Ki for 17 molecules.

Data set [1] concerns the target T1, Cholecystokinin receptor type A (Homo sapiens, UniProt P32238). Further: in other assays of this panel Not Active means under 50% inhibition at 10 µM.
T1 sequence (P32238 whole entry): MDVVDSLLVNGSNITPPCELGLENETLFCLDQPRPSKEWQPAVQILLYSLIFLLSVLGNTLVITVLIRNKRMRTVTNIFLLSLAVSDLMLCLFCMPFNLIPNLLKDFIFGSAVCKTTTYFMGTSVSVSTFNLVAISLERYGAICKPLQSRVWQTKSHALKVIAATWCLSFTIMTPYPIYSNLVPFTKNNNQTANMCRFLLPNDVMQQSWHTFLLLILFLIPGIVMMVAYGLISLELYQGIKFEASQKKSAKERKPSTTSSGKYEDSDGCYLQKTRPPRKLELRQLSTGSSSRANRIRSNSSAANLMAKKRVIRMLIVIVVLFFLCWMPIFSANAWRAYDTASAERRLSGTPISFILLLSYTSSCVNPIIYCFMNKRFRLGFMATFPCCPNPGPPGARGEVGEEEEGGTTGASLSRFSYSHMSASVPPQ
Type of data set: cell membranes, Membrane. As to conditions: 1321-n1.

Data set [2] has as its target T2, Neuropeptide Y receptor type 2 (Homo sapiens, UniProt P49146). Further: in other assays of this panel Not Active means under 50% inhibition at 10 µM.
T2 sequence (P49146 whole entry): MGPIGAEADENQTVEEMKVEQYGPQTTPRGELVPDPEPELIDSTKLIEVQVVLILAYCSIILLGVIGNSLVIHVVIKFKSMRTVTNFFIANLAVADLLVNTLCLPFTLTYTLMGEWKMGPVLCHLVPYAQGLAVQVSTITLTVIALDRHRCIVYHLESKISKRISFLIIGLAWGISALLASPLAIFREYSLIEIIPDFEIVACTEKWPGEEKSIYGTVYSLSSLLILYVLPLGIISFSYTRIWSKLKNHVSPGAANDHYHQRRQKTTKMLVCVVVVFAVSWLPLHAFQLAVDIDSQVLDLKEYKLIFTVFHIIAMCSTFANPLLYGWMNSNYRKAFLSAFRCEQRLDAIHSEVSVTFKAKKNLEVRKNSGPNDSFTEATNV
Type of data set: cell membranes, Membrane. Conditions: kan-ts.

Another data set deals with T3, Cytochrome P450 1A2 (Homo sapiens, UniProt P05177).
T3 sequence (P05177 whole entry): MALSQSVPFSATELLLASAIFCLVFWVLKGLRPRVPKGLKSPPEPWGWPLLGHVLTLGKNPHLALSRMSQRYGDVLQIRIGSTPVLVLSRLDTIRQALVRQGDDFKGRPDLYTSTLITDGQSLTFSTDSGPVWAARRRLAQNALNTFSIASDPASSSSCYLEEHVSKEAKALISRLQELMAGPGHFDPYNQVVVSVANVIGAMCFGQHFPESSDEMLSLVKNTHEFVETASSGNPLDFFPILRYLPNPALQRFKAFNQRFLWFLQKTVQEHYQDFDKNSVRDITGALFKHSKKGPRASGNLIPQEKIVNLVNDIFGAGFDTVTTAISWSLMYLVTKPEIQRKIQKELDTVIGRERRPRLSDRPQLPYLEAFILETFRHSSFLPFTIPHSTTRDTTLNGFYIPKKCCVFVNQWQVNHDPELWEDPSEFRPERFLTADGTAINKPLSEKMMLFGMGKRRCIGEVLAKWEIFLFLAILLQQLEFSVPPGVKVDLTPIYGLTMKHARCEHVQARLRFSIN
Conditions: bti-tn-5b1-4.

In the next data set the target is Cannabinoid receptor 1 (Homo sapiens, UniProt P21554). Type of data set: cell membranes, Chem-1, Membrane. Further: in other assays of this panel Not Active means under 50% inhibition at 10 µM.
Chain of Cannabinoid receptor 1 (P21554 whole entry): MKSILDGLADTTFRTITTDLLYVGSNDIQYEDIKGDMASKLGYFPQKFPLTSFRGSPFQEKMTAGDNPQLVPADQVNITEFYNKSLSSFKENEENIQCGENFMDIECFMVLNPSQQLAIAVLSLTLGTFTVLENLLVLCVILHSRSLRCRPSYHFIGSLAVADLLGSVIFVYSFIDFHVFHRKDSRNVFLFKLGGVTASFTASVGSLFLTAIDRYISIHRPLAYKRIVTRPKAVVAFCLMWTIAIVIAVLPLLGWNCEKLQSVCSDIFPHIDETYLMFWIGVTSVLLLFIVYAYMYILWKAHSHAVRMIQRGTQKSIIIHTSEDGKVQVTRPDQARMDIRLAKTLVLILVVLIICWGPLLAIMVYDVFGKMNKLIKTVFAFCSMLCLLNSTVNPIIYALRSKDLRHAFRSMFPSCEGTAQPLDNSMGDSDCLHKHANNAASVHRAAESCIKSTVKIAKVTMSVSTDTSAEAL
Data set [3] deals with T4, 5-hydroxytryptamine receptor 1A (Rattus norvegicus, UniProt P19327).
T4 sequence (P19327 whole entry): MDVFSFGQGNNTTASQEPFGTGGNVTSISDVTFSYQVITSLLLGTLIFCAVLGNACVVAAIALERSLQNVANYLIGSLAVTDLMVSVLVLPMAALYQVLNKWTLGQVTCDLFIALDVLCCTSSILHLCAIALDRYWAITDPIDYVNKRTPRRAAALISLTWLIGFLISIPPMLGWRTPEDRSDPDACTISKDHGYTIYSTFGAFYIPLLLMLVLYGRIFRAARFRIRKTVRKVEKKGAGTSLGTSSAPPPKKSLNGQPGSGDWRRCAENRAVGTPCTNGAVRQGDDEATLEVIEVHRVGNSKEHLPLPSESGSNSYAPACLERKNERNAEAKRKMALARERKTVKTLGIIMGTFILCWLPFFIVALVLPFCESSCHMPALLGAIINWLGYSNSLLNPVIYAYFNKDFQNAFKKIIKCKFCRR
Type of data set: cell membranes, CHO-K1, Membrane. As to conditions: for Ki: read-out: Ki.

The next data set has as its target T5, Neutrophil elastase (Homo sapiens, UniProt P08246).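 Further: inhibition of neutrophil elastase enzyme activity, measured with a p-nitroanilide-linked peptide substrate; in other assays of this panel Not Active means under 50% inhibition at 10 µM.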
T5 sequence (P08246 whole entry): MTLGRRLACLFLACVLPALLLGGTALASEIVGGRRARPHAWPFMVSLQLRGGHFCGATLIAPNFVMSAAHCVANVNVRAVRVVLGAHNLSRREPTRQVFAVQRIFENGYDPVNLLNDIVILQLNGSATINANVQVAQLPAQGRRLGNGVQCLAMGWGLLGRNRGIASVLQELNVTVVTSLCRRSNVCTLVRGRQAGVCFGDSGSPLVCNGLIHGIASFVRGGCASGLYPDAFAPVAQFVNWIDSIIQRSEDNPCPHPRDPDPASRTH
In kind it is tissue-based.

A further data set has as its target Adenosine receptor A2a (Homo sapiens, UniProt P29274). Put plainly: DRUGMATRIX: Adenosine A2A radioligand binding (ligand: […]). Type of data set: cell membranes, HEK293, Membrane. As to conditions: Not Active = under 50% inhibition at 10 µM.

Chain of Adenosine receptor A2a (P29274 whole entry): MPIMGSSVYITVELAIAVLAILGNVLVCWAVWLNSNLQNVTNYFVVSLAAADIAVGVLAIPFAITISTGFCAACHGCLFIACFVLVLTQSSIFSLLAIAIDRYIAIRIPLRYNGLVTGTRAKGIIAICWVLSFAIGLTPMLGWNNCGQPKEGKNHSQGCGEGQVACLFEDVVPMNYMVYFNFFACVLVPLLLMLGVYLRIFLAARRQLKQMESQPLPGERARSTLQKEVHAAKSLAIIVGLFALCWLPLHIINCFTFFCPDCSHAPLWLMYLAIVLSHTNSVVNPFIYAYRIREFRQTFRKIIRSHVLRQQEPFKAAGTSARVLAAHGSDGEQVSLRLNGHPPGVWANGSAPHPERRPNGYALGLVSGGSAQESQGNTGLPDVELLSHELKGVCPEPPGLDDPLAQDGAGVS

A word on the IC50: it is the point on the concentration scale where inhibition reaches its midpoint. The Ki is the dissociation constant of the complex between target and ligand, obtained from inhibition or displacement. In the case of `CCCCC(=O)N(Cc1ccc(-c2ccccc2-c2nnn[nH]2)cc1)[C@H](C(=O)O)C(C)C`, the IC50 entry (in data set [1]; in data set [2]; at Cytochrome P450 1A2; at Cannabinoid receptor 1 (chem-1); in data set [3] (cho-k1); against Neutrophil elastase) was “Not Active” in each case. Besides, the IC50 result on Adenosine receptor A2a (hek293) is “Not Active”. Further, the Ki result on Cytochrome P450 1A2 is “Not Active”.
Take `O=C(O)COc1ccc(C(=O)c2cccs2)c(Cl)c1Cl`: the IC50 result (in data set [1]; in data set [2]; against Cytochrome P450 1A2; against Cannabinoid receptor 1 (chem-1); in data set [3] (cho-k1); on Neutrophil elastase) was “Not Active” throughout. Moreover, on Adenosine receptor A2a (hek293), the IC50 entry was “Not Active”. The Ki entry on Cytochrome P450 1A2 is “Not Active”.
Regarding `CN1[C@@H]2CC[C@H]1C[C@@H](OC(c1ccccc1)c1ccccc1)C2` [BENZTROPINE], the IC50 result (in data set [1]; in data set [2]; against Cytochrome P450 1A2; against Cannabinoid receptor 1 (chem-1); in data set [3] (cho-k1); on Neutrophil elastase) was “Not Active” throughout. The half-maximal inhibitory concentration (IC50) result on Adenosine receptor A2a (hek293) is “Not Active”. Also, the Ki entry at Cytochrome P450 1A2 is listed as “Not Active”.
For the molecule `C[C@@](Cc1ccc(O)c(O)c1)(NN)C(=O)O.O` [CARBIDOPA], the half-inhibitory concentration (IC50) entry (in data set [1]; in data set [2]; against Cytochrome P450 1A2; against Cannabinoid receptor 1 (chem-1); in data set [3] (cho-k1); on Neutrophil elastase) was “Not Active” throughout. Moreover, the IC50 result at Adenosine receptor A2a (hek293) is “Not Active”. The Ki entry on Cytochrome P450 1A2 is “Not Active”.
Consider `CN1CCN(C2=Nc3cc(Cl)ccc3Nc3ccccc32)CC1` [CLOZAPINE], for which the IC50 entry (in data set [1]; in data set [2]; against Cytochrome P450 1A2; on Cannabinoid receptor 1 (chem-1); against Neutrophil elastase; at Adenosine receptor A2a (hek293)) was “Not Active” in each case. Also, the Ki entry on Cytochrome P450 1A2 was “Not Active”.
With `CC(C)NC[C@@H](O)COc1cccc2ccccc12` [DEXPROPRANOLOL], the IC50 result (in data set [1]; in data set [2]; against Cytochrome P450 1A2; on Cannabinoid receptor 1 (chem-1); at Neutrophil elastase; at Adenosine receptor A2a (hek293)) was “Not Active” throughout. Further, the Ki entry on Cytochrome P450 1A2 was “Not Active”.
Regarding `CC(C)NC[C@H](O)COc1cccc2ccccc12` [LEVOPROPRANOLOL], the IC50 entry (in data set [1]; in data set [2]; on Cytochrome P450 1A2; against Cannabinoid receptor 1 (chem-1); against Neutrophil elastase; at Adenosine receptor A2a (hek293)) was “Not Active” in each case. The Ki entry at Cytochrome P450 1A2 is given as “Not Active”.
Consider `O=C(O)CCCCC1CCSS1` (stereo not drawn) [LIPOIC ACID, ALPHA], for which the IC50 entry (in data set [1]; in data set [2]; against Cytochrome P450 1A2; on Cannabinoid receptor 1 (chem-1); in data set [3] (cho-k1); on Neutrophil elastase) was “Not Active” each time. Moreover, the IC50 entry at Adenosine receptor A2a (hek293) is “Not Active”. Also, the Ki result on Cytochrome P450 1A2 is “Not Active”.
As to `CN(C)C(=O)C(CCN1CCC(O)(c2ccc(Cl)cc2)CC1)(c1ccccc1)c1ccccc1` [LOPERAMIDE], the IC50 result (in data set [1]; in data set [2]; against Cytochrome P450 1A2; at Cannabinoid receptor 1 (chem-1); in data set [3] (cho-k1); at Neutrophil elastase) was “Not Active” throughout. Moreover, the IC50 entry on Adenosine receptor A2a (hek293) was “Not Active”. Besides, the Ki entry at Cytochrome P450 1A2 was “Not Active”.
Regarding `Clc1ccc(COC(Cn2ccnc2)c2ccc(Cl)cc2Cl)c(Cl)c1` (stereo not given) [MICONAZOLE], the IC50 result in data set [1] is “Not Active”; in data set [2], “Not Active”; at Cytochrome P450 1A2, “Not Active”; on Cannabinoid receptor 1 (read-out: IC50) it was 21 µM; in data set [3] (read-out: IC50), 11.5 µM; on Neutrophil elastase, “Not Active”. The values for the Ki entry (on Cytochrome P450 1A2; on Cannabinoid receptor 1 (read-out: Ki); in data set [3]) were “Not Active”, 16.6 µM and 6.56 µM, respectively.
For the molecule `Oc1ccc2c3c1O[C@H]1[C@@H](O)CC[C@@]4(O)[C@@H](C2)N(CC2CCC2)CC[C@]314` [NALBUPHINE], the IC50 entry (in data set [1]; in data set [2]; on Cannabinoid receptor 1 (chem-1); in data set [3] (cho-k1); against Neutrophil elastase; on Adenosine receptor A2a (hek293)) was “Not Active” in each case.
Take `C[C@]12C=CC(=O)C=C1CC[C@@H]1[C@@H]2C(=O)C[C@@]2(C)[C@H]1CC[C@]2(O)C(=O)CO` [PREDNISONE]: the IC50 entry (in data set [1]; in data set [2]; at Cannabinoid receptor 1 (chem-1); in data set [3] (cho-k1); against Neutrophil elastase; on Adenosine receptor A2a (hek293)) was “Not Active” in each case.
As for `OCCOCCN1CCN(C2=Nc3ccccc3Sc3ccccc32)CC1` [QUETIAPINE], the IC50 result (in data set [1]; in data set [2]; at Cytochrome P450 1A2; against Cannabinoid receptor 1 (chem-1); against Neutrophil elastase; on Adenosine receptor A2a (hek293)) was “Not Active” in each case. For the same molecule, at Cytochrome P450 1A2, the Ki result is “Not Active”.
On to `COC(=O)[C@H]1[C@H]2C[C@@H]3c4[nH]c5cc(OC)ccc5c4CCN3C[C@H]2C[C@@H](OC(=O)c2cc(OC)c(OC)c(OC)c2)[C@@H]1OC` [RESERPINE], for which the IC50 entry (in data set [1]; in data set [2]; at Cytochrome P450 1A2; against Cannabinoid receptor 1 (chem-1); in data set [3] (cho-k1); at Neutrophil elastase) was “Not Active” in each case. The IC50 entry on Adenosine receptor A2a (hek293) is “Not Active”. The Ki result at Cytochrome P450 1A2 is on record as “Not Active”.
For the molecule `C[S+]([O-])c1ccc(-c2nc(-c3ccncc3)c(-c3ccc(F)cc3)[nH]2)cc1` (stereo not given) [SB-203580], the IC50 result in data set [1] is “Not Active”; in data set [2], “Not Active”; against Cannabinoid receptor 1 (chem-1) it was “Not Active”; in data set [3] (cho-k1) it was “Not Active”; against Neutrophil elastase, “Not Active”; on Adenosine receptor A2a (read-out: IC50) it was 6.07 µM. Also, the Ki at Adenosine receptor A2a (read-out: Ki) came to 3.41 µM.
Take `CCCCCCCCNC(C)C(O)c1ccc(SC(C)C)cc1` (stereo not given) [SULOCTIDIL]: the IC50 entry in data set [1] was “Not Active”; in data set [2], “Not Active”; against Cannabinoid receptor 1 (chem-1), “Not Active”; in data set [3] (read-out: IC50), 0.544 µM; against Neutrophil elastase it was “Not Active”; at Adenosine receptor A2a (hek293), “Not Active”. Besides, the Ki in data set [3] came to 0.311 µM.
For the molecule `CN1CCN(CCCN2c3ccccc3Sc3ccc(C(F)(F)F)cc32)CC1` [TRIFLUOPERAZINE], the IC50 entry (in data set [1]; in data set [2]; on Cannabinoid receptor 1 (chem-1); in data set [3] (cho-k1); against Neutrophil elastase; at Adenosine receptor A2a (hek293)) was “Not Active” in each case.
